Data published in US9475808B2, “Inhibitor compounds of phosphodiesterase type 10A” (AbbVie Deutschland GmbH & Co. KG, priority 2013, dated 2016).

Experiments:
[1] = Determination of the microsomal half-life / microsomal clearance, rat liver microsomes; settings: 0.5 μM test substance, 0.25 mg microsomal protein/ml, pH 7.4, 37° C., NADPH
Experimental: (§1) The test substances were incubated in a concentration of 0.5 μM as follows:
(§2) 0.5 μM test substance are preincubated together with liver microsomes from different species (from rat, human or other species) (0.25 mg of microsomal protein/ml) in 0.05 M potassium phosphate buffer of pH 7.4 in microtiter plates at 37° C. for 5 min. The reaction is started by adding NADPH (1 mg/mL). After 0, 5, 10, 15, 20 and 30 min, 50 μl aliquots are removed, and the reaction is immediately stopped and cooled with the same volume of acetonitrile. The samples are frozen until analyzed. The remaining concentration of undegraded test substance is determined by MSMS. The half-life (T½) is determined from the gradient of the signal of test substance/unit time plot, it being possible to calculate the half-life of the test substance, assuming first order kinetics, from the decrease in the concentration of the compound with time. The microsomal clearance (mCl) is calculated from mCl=ln 2/T½/(content of microsomal protein in mg/ml)×1000 [ml/min/mg]

[2] = Determination of the microsomal half-life / microsomal clearance, human liver microsomes; settings: 0.5 μM test substance, 0.25 mg microsomal protein/ml, pH 7.4, 37° C., NADPH
Experimental: as §1, §2

PDE10A = PDE10A (UniProt Q9Y233); assay: Measurement of PDE activity (HTRF cAMP assay, recombinant enzyme); format: biochemical; settings: 20 nM cyclic nucleotide substrate, 60 minutes at 29 C
Experimental: The recombinant PDE proteins are used in in vitro enzymatic reaction for measurement of PDE activity. These recombinant proteins, including PDE10A (human, rat and mouse PDE10) and isoforms of PDEs 1, 3, 4, and 5, were purchased from commercial vendor BPS Bioscience. The enzymatic activity of PDEs was determined by cAMP measurement kit from CisBio (IBA) using HTRF technology.
The PDE enzymatic reaction was carried out in assay buffer (20 mM Tris-HCl pH7.5, 10 mM MgCl2, 0.1% bovine serum albumin) containing enzyme and substrate. The PDE enzymes concentration ranged from 10 pM-250 pM, depending on each enzyme's specific activity. The substrate cyclic nucleotide (cAMP or cGMP) concentration used in the assay was 20 nM for PDE10, and 100 nM for other PDEs. The inhibitory effect of compound was determined by incubating various concentration of inhibitor in the enzymatic assay. Typically, compound was serial diluted in DMSO then further diluted in assay buffer. Next, the compound at varying concentration was mixed with PDE enzyme. The reaction was initiated by addition of cyclic nucleotide substrate, and incubated for 60 minutes at 29 C. The reaction was stopped by addition of lysis buffer from assay kit. The cAMP-d2 and anti-cAMP cryptate in the lysis buffer detected the level of cAMP left from the PDE hydrolysis reaction. The PDE activity is reversely correlated with the amount of cAMP left in the reaction and can be converted to the percent activity of an uninhibited control (100%). Thus, IC50 value of inhibitor can be obtained by plotting inhibitor concentration against PDE activity at that concentration.

rats [3] = settings: cited from earlier work
rats [4] = settings: cited from earlier work; remark: listed apart in the source

Row | Compound | Rat mCl [1] | Human mCl [2] | IC50 (PDE10A) [nM] | catalepsy on its own (rats [3]; alone) | cataleptic effect of the D2 receptor antagonist haloperidol (rats [3]; with haloperidol) | hyperactivity induced by PCP (rats [4]; PCP-induced) | reduction of amphetamine-induced hyperactivity (rats [4]; amphetamine-induced)
1 | Cn1cc2c(c(-c3cccnc3)c1=O)C(=O)N(CCc1ccc3ccccc3n1)C2 [Example 13, 5-Methyl-7-pyridin-3-yl-2-(2-quinolin-2-yl-ethyl)-3,5-dihydro-2H-pyrrolo[3,4-c]pyridine-1,6-dione] | ++ (++: <100 μl min^−1 mg^−1) | ++ (++: <100 μl min^−1 mg^−1) | > 500 |  |  |  | 
2 | COc1ccc(Cn2cc3c(c(N4CCOCC4)c2=O)C(=O)N(CCc2ccc4ccccc4n2)C3)cc1 [Example 14, 5-(4-Methoxy-benzyl)-7-morpholin-4-yl-2-(2-quinolin-2-yl-ethyl)-3,5-dihydro-2H-pyrrolo[3,4-c]pyridine-1,6-dione] | + (+: 100-220 μl min^−1 mg^−1) | ∘ (∘: >220 μl min^−1 mg^−1) | < 100 |  |  |  | 
3 | O=C1c2c(c[nH]c(=O)c2N2CCOCC2)CN1CCc1ccc2ccccc2n1 [Example 15, 7-Morpholin-4-yl-2-(2-quinolin-2-yl-ethyl)-3,5-dihydro-2H-pyrrolo[3,4-c]pyridine-1,6-dione] | ++ (++: <100 μl min^−1 mg^−1) | ++ (++: <100 μl min^−1 mg^−1) | < 100 |  |  |  | 
4 | CCn1cc2c(c(N3CCOCC3)c1=O)C(=O)N(CCc1ccc3ccccc3n1)C2 [Example 16, 5-Ethyl-7-morpholin-4-yl-2-(2-quinolin-2-yl-ethyl)-3,5-dihydro-2H-pyrrolo[3,4-c]pyridine-1,6-dione] | ++ (++: <100 μl min^−1 mg^−1) | ++ (++: <100 μl min^−1 mg^−1) | < 100 |  |  |  | 
5 | CC(C)n1cc2c(c(N3CCOCC3)c1=O)C(=O)N(CCc1ccc3ccccc3n1)C2 [Example 17, 5-Isopropyl-7-morpholin-4-yl-2-(2-quinolin-2-yl-ethyl)-3,5-dihydro-2H-pyrrolo[3,4-c]pyridine-1,6-dione] | ++ (++: <100 μl min^−1 mg^−1) | ++ (++: <100 μl min^−1 mg^−1) | < 100 |  |  |  | 
6 | COCCn1cc2c(c(N3CCOCC3)c1=O)C(=O)N(CCc1ccc3ccccc3n1)C2 [Example 18, 5-(2-Methoxy-ethyl)-7-morpholin-4-yl-2-(2-quinolin-2-yl-ethyl)-3,5-dihydro-2H-pyrrolo[3,4-c]pyridine-1,6-dione] | ++ (++: <100 μl min^−1 mg^−1) | ++ (++: <100 μl min^−1 mg^−1) | < 100 |  |  |  | 
7 | O=C1c2c(cn(CCO)c(=O)c2N2CCOCC2)CN1CCc1ccc2ccccc2n1 [Example 19, 5-(2-Hydroxy-ethyl)-7-morpholin-4-yl-2-(2-quinolin-2-yl-ethyl)-3,5-dihydro-2H-pyrrolo[3,4-c]pyridine-1,6-dione] | +++ (+++ <10 μl min^−1 mg^−1) | ++ (++: <100 μl min^−1 mg^−1) | < 100 |  |  |  | 
8 | Cn1cc2c(c(N3CCOCC3)c1=O)C(=O)N(CCc1nc3ccccc3n1C)C2 [Example 20, 5-Methyl-2-[2-(1-methyl-1H-benzoimidazol-2-yl)-ethyl]-7-morpholin-4-yl-3,5-dihydro-2H-pyrrolo[3,4-c]pyridine-1,6-dione] | ++ (++: <100 μl min^−1 mg^−1) | ++ (++: <100 μl min^−1 mg^−1) | < 100 |  |  |  | 
9 | Cn1cc2c(c(-c3cccnc3)c1=O)C(=O)N(CCc1nc3ccccc3n1C)C2 [Example 21, 5-Methyl-2-[2-(1-methyl-1H-benzoimidazol-2-yl)-ethyl]-7-pyridin-3-yl-3,5-dihydro-2H-pyrrolo[3,4-c]pyridine-1,6-dione] | ++ (++: <100 μl min^−1 mg^−1) | ++ (++: <100 μl min^−1 mg^−1) | 200 to 500 |  |  |  | 
10 | Cn1cc2c(c(N3CCOCC3)c1=O)C(=O)N(CCc1cn3ccccc3n1)C2 [Example 22, 2-(2-Imidazo[1,2-a]pyridin-2-yl-ethyl)-5-methyl-7-morpholin-4-yl-3,5-dihydro-2H-pyrrolo[3,4-c]pyridine-1,6-dione] | ++ (++: <100 μl min^−1 mg^−1) | +++ (+++ <10 μl min^−1 mg^−1) | < 100 |  |  |  | 
11 | Cn1cc2c(c(N3CCOCC3)c1=O)C(=O)N(CCc1nc3ccccn3n1)C2 [Example 24, 5-Methyl-7-morpholin-4-yl-2-(2-[1,2,4]triazolo[1,5-a]pyridin-2-yl-ethyl)-3,5-dihydro-2H-pyrrolo[3,4-c]pyridine-1,6-dione] | ++ (++: <100 μl min^−1 mg^−1) | ++ (++: <100 μl min^−1 mg^−1) | > 500 |  |  |  | 
12 | Cn1cc2c(c(N3CCOCC3)c1=O)C(=O)N(CCc1nc3n(n1)CCCC3)C2 [Example 25, 5-Methyl-7-morpholin-4-yl-2-[2-(5,6,7,8-tetrahydro-[1,2,4]triazolo[1,5-a]pyridin-2-yl)-ethyl]-3,5-dihydro-2H-pyrrolo[3,4-c]pyridine-1,6-dione] | +++ (+++ <10 μl min^−1 mg^−1) | +++ (+++ <10 μl min^−1 mg^−1) | > 500 |  |  |  | 
13 | Cn1cc2c(c(-c3cccnc3)c1=O)C(=O)N(CCc1nc3ccccn3n1)C2 [Example 26, 5-Methyl-7-pyridin-3-yl-2-(2-[1,2,4]triazolo[1,5-a]pyridin-2-yl-ethyl)-3,5-dihydro-2H-pyrrolo[3,4-c]pyridine-1,6-dione] | ++ (++: <100 μl min^−1 mg^−1) | +++ (+++ <10 μl min^−1 mg^−1) | > 500 |  |  |  | 
14 | Cn1cc2c(c(-c3ccc(F)cc3)c1=O)C(=O)N(CCc1ccc3ccccc3n1)C2 [Example 27, 7-(4-Fluoro-phenyl)-5-methyl-2-(2-quinolin-2-yl-ethyl)-3,5-dihydro-2H-pyrrolo[3,4-c]pyridine-1,6-dione] | ++ (++: <100 μl min^−1 mg^−1) | +++ (+++ <10 μl min^−1 mg^−1) | 100 to 200 |  |  |  | 
15 | Cn1cc2c(c(-c3cncnc3)c1=O)C(=O)N(CCc1ccc3ccccc3n1)C2 [Example 28, 5-Methyl-7-pyrimidin-5-yl-2-(2-quinolin-2-yl-ethyl)-3,5-dihydro-2H-pyrrolo[3,4-c]pyridine-1,6-dione] | ++ (++: <100 μl min^−1 mg^−1) | ++ (++: <100 μl min^−1 mg^−1) | 100 to 200 |  |  |  | 
16 | Cn1cc2c(c(-c3cn[nH]c3)c1=O)C(=O)N(CCc1ccc3ccccc3n1)C2 [Example 29, 5-Methyl-7-(1H-pyrazol-4-yl)-2-(2-quinolin-2-yl-ethyl)-3,5-dihydro-2H-pyrrolo[3,4-c]pyridine-1,6-dione] | ++ (++: <100 μl min^−1 mg^−1) | +++ (+++ <10 μl min^−1 mg^−1) | > 500 |  |  |  | 
17 | COc1ccc(-c2c3c(cn(C)c2=O)CN(CCc2ccc4ccccc4n2)C3=O)cc1 [Example 31, 7-(4-Methoxy-phenyl)-5-methyl-2-(2-quinolin-2-yl-ethyl)-3,5-dihydro-2H-pyrrolo[3,4-c]pyridine-1,6-dione] | ++ (++: <100 μl min^−1 mg^−1) | ++ (++: <100 μl min^−1 mg^−1) | 100 to 200 |  |  |  | 
18 | Cn1cc2c(c(-c3ccncc3)c1=O)C(=O)N(CCc1nc3ccccc3s1)C2 [Example 32, 2-[2-(1,3-benzothiazol-2-yl)ethyl]-5-methyl-7-(4-pyridyl)-3,5-dihydro-2H-pyrrolo[3,4-c]pyridine-1,6-dione] | +++ (+++ <10 μl min^−1 mg^−1) | +++ (+++ <10 μl min^−1 mg^−1) | > 500 |  |  |  | 
19 | Cn1cc2c(c(N3CCOCC3)c1=O)C(=O)N(CCc1nc3ccccc3s1)C2 [Example 33, 2-[2-(1,3-benzothiazol-2-yl)ethyl]-5-methyl-7-morpholin-4-yl-3,5-dihydro-2H-pyrrolo[3,4-c]pyridine-1,6-dione] | +++ (+++ <10 μl min^−1 mg^−1) | +++ (+++ <10 μl min^−1 mg^−1) | 100 to 200 |  |  |  | 
20 | Cn1cc2c(c(N3CCOCC3)c1=O)C(=O)N(CC(F)(F)c1ccc3ccccc3n1)C2 [Example 34, 2-(2,2-Difluoro-2-quinolin-2-yl-ethyl)-5-methyl-7-morpholin-4-yl-3,5-dihydro-2H-pyrrolo[3,4-c]pyridine-1,6-dione] | ++ (++: <100 μl min^−1 mg^−1) | ++ (++: <100 μl min^−1 mg^−1) | < 100 |  |  |  | 
21 | COc1ccc(Cc2nccc3cc(OC)c(OC)cc23)cc1OC [Papaverine, papaverine] |  |  |  | did not cause catalepsy on its own | potentiated the cataleptic effect | reduced hyperactivity | insignificant
